Results reported in patent US20030088057A1, “PEPTIDE SUBSTRATES PHOSPHORYLATED BY P21-ACTIVAGED PROTEIN KINASE STATEMENT REGARDING FEDERALLY SPONSORED REASEARCH OR DEVELOPMENT” (priority 1998, published 2003).
Read-outs that look alike come from different tables or passages of the source. No end group written: not given here.

What was measured:
[1] = tested on: γ-PAK; experiment: Kinetic parameters (Km, Vmax) for phosphorylation of synthetic peptides by γ-PAK; assay type: biochemical, rabbit
Description: (§1) Assays with peptides (I mM) were carried out with γ-PAK (1.6-5.6 units) in 25 μL reaction mixtures incubated for 30 min at 30° C. under conditions described above, except that 0.4 mg/mL of bovine serum albumin was added and the specific activity of ATP was 300-2000 cpm/pmol. Reactions were terminated with 5 μL of 100 mM ATP, and the amount of ^32p incorporated was quantitated by precipitation of 20 μL aliquots on P81 phosphocellulose paper with 75 mM H3PO4 as described previously [Bensen, E. S., et al., Biochim. Biophys. Acta, 1292:249-258 (1996)]. Peptides containing only one basic amino acid were analyzed by thin-layer electrophoresis on cellulose sheets for 2 h at 600 V with pyridine/acetic acid/water (10:100:890), pH 3.5, as solvent, as described previously [Bensen, E. S., et al., supra]. Activation of γ-PAK by autophosphorylation in the presence of Cdc42(GTPγS) was performed as previously described [Jakobi, R., et al., supra]. γ-PAK was also activated by limited digestion with trypsin as described previously [Rooney, R. D., et al., (1996), supra].

[2] = tested on: γ-PAK; experiment: Rates of phosphorylation of synthetic peptides by γ-PAK; assay type: biochemical, rabbit; conditions: for 32P incorporated, %: AKRASAA taken as 100%; for substrate for γ-PAK (in words): synthetic peptides; for rate of phosphorylation compared to AKRASAA: relative to AKRASAA; for rate of phosphorylation compared to ARRASVA: other studies, ARRASVA = 100%
Excerpt: (§2) A. Materials. γ-PAK was purified from rabbit reticulocytes to apparent homogeneity by chromatography on DEAE-cellulose, SP-Sepharose, protamine agarose, and FPLC on Mono S and Mono Q. Histone I (type IIIS), mixed histone (type IIAS), trypsin (L-1-tosylamido-2-phenylethyl chloromethyl ketone treated), soybean trypsin inhibitor, bovine serum albumin (fatty acid free), and myelin basic protein were purchased from Sigma. Purified histones 2B and 4 were purchased from Boehringer-Mannheim. Myosin light chain from rabbit skeletal muscle was a gift from Dr. James Stull, University of Texas Southwestern Medical Center, Dallas, Tex.; rat prolactin was provided by Dr. Ameae Walker, University of California, Riverside, Calif.; and the purified catalytic subunit of cAMP-dependent protein kinase from bovine heart was a gift from Dr. William H. Fletcher, J. L. Pettis Memorial V. A. Hospital, Loma Linda, Calif. Protein kinase C was purified from bovine brain according to the procedure of Walton et al. [Walton, G. M., et al., Anal Biochem., 161:425-437 (1987)], with modifications [Venema, R. C., et al., J. Biol. Chem., 266:5298-5302 (1991)]. The clone for GST-Cdc42 was generously provided by Dr. Channing Der, University of North Carolina, Chapel Hill, N.C. Cellulose thin-layer chromatography sheets were from Kodak.
D. Phosphorylation Assays. Phosphorylation of protein substrates was carried out in 35 μL reaction mixtures containing 20 mM Tris-HCl, pH 7.4, 10 mM MgCl2, 30 mM 2-mercaptoethanol, 0.2 mM ATP (specific activity =1000 cpm/pmol), 2 μg of protein substrate, and 20 units of active γ-PAK (an enzyme unit is defined as the amount of enzyme that incorporates 1 pmol of phosphate into histone IIAS/ min at 30°. Under these conditions, phosphate incorporation was linear and initial rates of phosphorylation were measured. After incubation at 30° C. for 15 min, reactions were terminated by the addition of 5 μL of 100 mM nonlabeled ATP and sample buffer for gel electrophoresis [Hathaway, G. M., et al., Methods Enzymol., 60:495-511 (1979)]. Reaction mixtures were subjected to SDS-PAGE on 15% polyacrylamide gels followed by autoradiography. Phosphorylation was quantified by excising the protein band and counting the incorporated ^32P in a liquid scintillation counter. The specific activity of γ-PAK was 400 pmol min^−1 μg^−1 as reported previously using 0.2 mM ATP and 1 mg/mL mixed histone as substrate [Rooney, R. D., et al., (1996), supra].
as §1
Target sequence in this assay (Q29502 249-500 limits assumed): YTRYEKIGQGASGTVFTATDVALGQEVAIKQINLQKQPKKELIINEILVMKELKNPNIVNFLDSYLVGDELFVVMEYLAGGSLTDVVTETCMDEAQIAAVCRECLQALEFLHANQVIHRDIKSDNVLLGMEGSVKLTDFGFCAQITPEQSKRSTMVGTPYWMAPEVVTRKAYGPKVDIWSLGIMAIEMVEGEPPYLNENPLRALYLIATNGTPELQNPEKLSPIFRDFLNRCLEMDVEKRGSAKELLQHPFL

[3] = tested on: PKC; experiment: Rates of phosphorylation of synthetic peptides by PKC; assay type: biochemical, bovine; conditions: for 32P incorporated: PKC (3.4 units), with Ca2+ and phospholipids, 0.14 mM ATP; for 32P incorporated, %: PKC, AKRASAA taken as 100%
Excerpt: as §2
Reactions with PKA (10.5 units) were carried out under the same conditions as with γ-PAK except that 0.14 mM ATP was used. Reactions with PKC (3.4 units) were performed as with PKA, with the addition of 0.4 mM CaCl2, phosphatidylinositol (15 μg/mL), phosphatidylserine (15 μg/ mL), and 1,2-diolein (3 μg/mL), as described [Tuazon, P. T., et al., (1989), supra]. A unit of PKA or PKC is defined as the amount of enzyme that incorporates 1 pmol of phosphate/min at 30° C. into histone IIAS or histone 1, respectively.
PKA and PKC are known to require basic amino acids on the N-terminal side of the phosphorylatable serine/ threonine. To distinguish their substrate specificities from that of γ-PAK, the relative rates of phosphorylation were determined with the synthetic peptide substrates using the conditions for γ-PAK, with the addition of Ca^2+ and phospholipids for PKC. The rates shown in Table 5 are calculated with equivalent units of enzyme; the rate of phosphorylation of the peptide AKRASAA (SEQ ID NO:6) is taken as 100% for all three enzymes. As would be expected, PKA preferentially phosphorylated the peptides that contained RR or RK at the −3 and −2 positions and with […] residues or proline at the −4 and −1 positions inhibitory. PKC recognized SKR>RKS>KKS. The most notable difference between γ-PAK and PKA or PKC is the effect of acidic residues on the susceptibility of the peptide to be phosphorylated. An acidic residue in the −1 or −4 position was beneficial for γ-PAK but was detrimental for both PKA and PKC (Table 5). […] In addition, γ-PAK could not tolerate an arginine in the −3 position when lysine was in the −2 position.

[4] = Cdc42(GTPγS)-activated γ-PAK, peptide 1 mM, KKRKSAA = 100
[5] = proteolytically (trypsin) activated γ-PAK, peptide 1 mM, compared to KKRKSAA = 100
[6] = proteolytically activated γ-PAK (5.6 units), peptide 1 mM, 30 min at 30° C.
[7] = γ-PAK, calculated with equivalent units of enzyme
[8] = Table 2, influence of basic amino acids, γ-PAK 1.6 units, ATP 0.2 mM
[9] = Table 2, influence of basic amino acids, γ-PAK 1.6 units, ATP 0.2 mM, read-out: Km
[10] = Table 4, influence of proline and glycine
[11] = Table 4, influence of proline and glycine, read-out: Km

Row | Compound | rel rate (%) [2, 4] | rel rate (%) [2, 5] | 32P incorporated [2, 6] | substrate for γ-PAK (in words) [2] | Km [1, 9] | other results
1 | Nc1ncnc2c1ncn2[C@@H]1O[C@H](COP(=O)(O)OP(=O)(O)OP(=O)(O)O)[C@@H](O)[C@H]1O [ATP, reference compound] |  |  |  |  |  | Km ([1]; at concentrations of 1-3 mM peptide, read-out: Km for ATP): 65 to 80 µM
2 | AAAASKR (AAAASKR-NH2) [synthetic peptide with an amide C-terminal group] | 0% | 0% | 0 pmol/min/µg |  |  | 32P incorporated, % ([2]; γ-PAK): 0%; 32P incorporated [2, 7]: 0 pmol/unit; 32P incorporated [3]: 13.3 pmol/unit; 32P incorporated, % [3]: 403%
3 | AAKKSAA (AAKKSAA-NH2) [synthetic peptide with an amide C-terminal group] | 0% | 0% | 0 pmol/min/µg | poor substrates |  | 
4 | AAKRSAA (AAKRSAA-NH2) [synthetic peptide with an amide C-terminal group] | 0% | 0% | 0 pmol/min/µg | poor substrates |  | 
5 | AARASAA (AARASAA-NH2) [synthetic peptide with an amide C-terminal group] | 56% | 56% | 169 pmol/min/µg | reacted to a small but significant extent | 1880 µM | rate of phosphorylation compared to AKRASAA ([2]; γ-PAK): 40%; Vmax [1, 8]: 2.27 pmol/min
6 | AKRASGA (AKRASGA-NH2) [synthetic peptide with an amide C-terminal group] |  | 107% | 324 pmol/min/µg |  |  | increase of Km compared to AKRASAA [1]: 4 fold; increase of Vmax compared to AKRASAA [1]: 3 fold; overall rate of phosphorylation (Vmax/Km) compared to AKRASAA [1]: slight overall decrease; Vmax [1, 10]: 3.49 pmol/min; Km [1, 11]: 2090 µM
7 | AKRASPA (AKRASPA-NH2) [synthetic peptide with an amide C-terminal group] | 3% | 0% | 0 pmol/min/µg | virtually abolished phosphorylation |  | Km [1, 11]: > 5000 µM
8 | AKRGSAA (AKRGSAA-NH2) [synthetic peptide with an amide C-terminal group] |  | 126% | 381 pmol/min/µg |  |  | increase of Km compared to AKRASAA [1]: 7 fold; increase of Vmax compared to AKRASAA [1]: 6 fold; overall rate of phosphorylation (Vmax/Km) compared to AKRASAA [1]: slight overall decrease; Vmax [1, 10]: 6.44 pmol/min; Km [1, 11]: 3520 µM
9 | AKRKSAA (AKRKSAA-NH2) [synthetic peptide with an amide C-terminal group] | 158% | 181% | 548 pmol/min/µg |  | 480 µM | Vmax [1, 8]: 2.34 pmol/min
10 | AKRPSAA (AKRPSAA-NH2) [synthetic peptide with an amide C-terminal group] | 11% | 6% | 16 pmol/min/µg | virtually abolished phosphorylation |  | 32P incorporated, % ([2]; γ-PAK): 5%; 32P incorporated [2, 7]: 1.2 pmol/unit; Km [1, 11]: > 5000 µM; 32P incorporated [3]: 3.9 pmol/unit; 32P incorporated, % [3]: 118%
11 | ARAASVA [synthetic peptide] |  |  |  | reacted to a small but significant extent |  | rate of phosphorylation compared to ARRASVA ([2]; γ-PAK): 40%; rate of phosphorylation compared to AKRASAA ([2]; γ-PAK): 40%
12 | ARKASAA (ARKASAA-NH2) [synthetic peptide with an amide C-terminal group] | 9% | 6% | 16 pmol/min/µg | poor substrates | > 5000 µM | 32P incorporated, % ([2]; γ-PAK): 3%; 32P incorporated [2, 7]: 0.9 pmol/unit; 32P incorporated [3]: 5.7 pmol/unit; 32P incorporated, % [3]: 173%
13 | ARRASAA (ARRASAA-NH2) [synthetic peptide with an amide C-terminal group] | 134% | 129% | 391 pmol/min/µg | as good a substrate as AKRASAA | 650 µM | 32P incorporated, % ([2]; γ-PAK): 93%; 32P incorporated [2, 7]: 25.0 pmol/unit; Vmax [1, 8]: 2.11 pmol/min; 32P incorporated [3]: 18.8 pmol/unit; 32P incorporated, % [3]: 570%
14 | ARRASVA [synthetic peptide] |  |  |  |  |  | rate of phosphorylation compared to ARRASVA ([2]; γ-PAK): 100%
15 | KKAASAA (KKAASAA-NH2) [synthetic peptide with an amide C-terminal group] | 3% | 0% | 0 pmol/min/µg | did not |  | 
16 | KKRASAA (KKRASAA-NH2) [synthetic peptide with an amide C-terminal group] | 181% | 193% | 586 pmol/min/µg |  | 370 µM | Vmax [1, 8]: 1.59 pmol/min
17 | KKRKSAA [model peptide patterned after the phosphorylation site of nucleocapsid protein NC] | 100% | 100% | 302 pmol/min/µg |  | 610 µM | 32P incorporated, % ([2]; γ-PAK): 72%; 32P incorporated [2, 7]: 19.2 pmol/unit; Vmax [1, 8]: 1.84 pmol/min; Vmax ([1]; text b67, b73): 302 pmol/min/µg; 32P incorporated [3]: 11.1 pmol/unit; 32P incorporated, % [3]: 370%
